In US20250206730A1 (AUTOTELIC BIO INC., priority 2022, published 2025):

What was measured:
[1] = molecular target: T1, ALK5 kinase (Homo sapiens, UniProt P36897); assay: LanthaScreen Eu Kinase Binding Assay; conditions: Kinase Tracer 178, Eu-anti-GST Antibody, read-out: IC50 Enzyme
T1 sequence (P36897 34-503): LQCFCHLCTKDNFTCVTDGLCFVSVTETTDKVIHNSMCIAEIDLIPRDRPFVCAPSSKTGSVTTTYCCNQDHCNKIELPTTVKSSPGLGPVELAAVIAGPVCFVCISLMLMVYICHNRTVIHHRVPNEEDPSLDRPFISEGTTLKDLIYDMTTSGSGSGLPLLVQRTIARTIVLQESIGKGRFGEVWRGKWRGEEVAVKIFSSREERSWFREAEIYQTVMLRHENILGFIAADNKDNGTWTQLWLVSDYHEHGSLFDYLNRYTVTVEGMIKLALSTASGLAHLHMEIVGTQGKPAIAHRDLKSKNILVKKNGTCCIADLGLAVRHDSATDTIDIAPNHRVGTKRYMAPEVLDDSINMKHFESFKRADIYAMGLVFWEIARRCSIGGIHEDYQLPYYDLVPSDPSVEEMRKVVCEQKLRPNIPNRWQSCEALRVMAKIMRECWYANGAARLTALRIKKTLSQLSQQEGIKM
Experimental: [Example 1] LanthaScreen Eu Kinase Binding Assay
4 μL of 4× Test Compound in 4% DMSO and 4 μL of 4× Kinase in Kinase buffer were added to wells (low volume, white 384-well plate (Greiner Cat. #784207)). The plate was shaken for 30 seconds, centrifuged for 10 seconds at 1000 rpm, and incubated at RT for 30 minutes. Then, 4 μL of 4× Eu-anti-GST Antibody and 4 μL of 4× Kinase Tracer 178 were added to the wells. The plate was shaken for 30 seconds, centrifuged for 10 seconds at 1000 rpm, and incubated at RT for 60 minutes. Fluorescence was measured by a plate reader, Biotek Synergy H1 (Vermont, USA) under the following conditions. • Excitation: 340 nm (3 nm bandpass) • Kinase tracer emission: 665 nm (10 nm bandpass) • Eu Ab emission: 615 nm (10 nm bandpass) • Emission ratio=665 nm (tracer)/615 nm (Eu Ab) • The higher the binding affinity of compound to ALK5 kinase is, the less the emission ratio is.

[2] = system: TGF-β signaling; assay: Assay for evaluating cellular inhibition of TGF-β signaling, 4T1 (SBE-luc2P) luciferase reporter; assay type: cell-based; conditions: Mus musculus, 4T1, 4T1 (SBE-luc2P) transient pool, 0.2% FBS, 2 h pre-treatment, TGF-β1 2 ng/mL 24 h; read-out: IC50 4T1 Cell
Experimental: [Example 2] Assay for Evaluating Cellular Inhibition of TGF-β Signaling
4T1 (SBE-luc2P) transient pool that have SBE-luc2P (hygro) expression plasmid or HEK293 (SBE reporter) stable cells (BPS bioscience) were seeded at 6×10^3 cells/well or 2.5×10^4 cells/well in 96-well plate, respectively. 4T1 (SBE-luc2P) transient pool were pre-treated with novel compound synthesized in Example 1 above in 0.2% FBS at approximately 60% confluence at 37° C. in 5% CO2. Also, HEK293 (SBE reporter) stable cells were pre-treated with each test compounds of formula in 0.5% FBS at approximately 80% confluence at 37° C. in 5% CO2. After 2 hours, cells were treated with TGF-β1 (2 ng/mL) for 24 h at 37° C. in 5% CO2. Cell lysates were prepared using Luciferase Assay (Promega) according to the manufacturer's instruction, and luminescence was measured by a plate reader, Biotek Synergy H1 (Vermont, USA).

IC50 [1] | IC50 [2] | Compound
< 100 nM | < 100 nM | CNC(=O)c1ccc(Nc2cc(Oc3sc(C(F)(F)F)nc3-c3ccccc3)ccn2)cc1 [A-148, N-Methyl-4-((4-((4-phenyl-2-(trifluoromethyl)thiazol-5-yl)oxy)pyridin-2-yl)amino)benzamide]
< 100 nM | > 100 nM | CN(C)C(=O)c1cccc(Nc2cc(Oc3sc(N)nc3-c3ccccc3)ccn2)c1 [A-10, 3-((4-((2-Amino-4-phenylthiazol-5-yl)oxy)pyridin-2-yl)amino)-N,N-dimethylbenzamide]
< 100 nM | < 100 nM | Cc1nc(-c2ccccc2)c(Oc2ccnc(Nc3ccc(OCCN4CCCCC4)cc3)c2)s1 [A-105, 4-((2-Methyl-4-phenylthiazol-5-yl)oxy)-N-(4-(2-(piperidin-1-yl)ethoxy)phenyl)pyridin-2-amine]
< 100 nM | > 100 nM | CC(C)(O)c1cccc(Nc2cc(Oc3sc(N)nc3-c3ccccc3)ccn2)c1 [A-41, 2-(3-((4-((2-Amino-4-phenylthiazol-5-yl)oxy)pyridin-2-yl)amino)phenyl)propan-2-ol]
< 100 nM | < 100 nM | CNC(=O)c1ccc(Nc2cc(Oc3sc(C(F)(F)F)nc3-c3ccccc3)ccn2)nc1 [A-150, N-Methyl-6-((4-((4-phenyl-2-(trifluoromethyl)thiazol-5-yl)oxy)pyridin-2-yl)amino)nicotinamide]
< 100 nM | > 100 nM | CC(C)(O)c1cc(Nc2cc(Oc3sc(N)nc3-c3ccccc3)ccn2)ccn1 [A-42, 2-(4-((4-((2-Amino-4-phenylthiazol-5-yl)oxy)pyridin-2-yl)amino)pyridin-2-yl)propan-2-ol]
< 100 nM | < 100 nM | O=C(O)c1cccc(Nc2cc(Oc3sc(C4CC4)nc3-c3ccccc3)ccn2)c1 [A-135, 3-((4-((2-Cyclopropyl-4-phenylthiazol-5-yl)oxy)pyridin-2-yl)amino)benzoic acid]
< 100 nM | < 100 nM | CNC(=O)c1cccc(Nc2cc(Oc3sc(C4CC4)nc3-c3ccccc3)ccn2)n1 [A-125, 6-((4-((2-Cyclopropyl-4-phenylthiazol-5-yl)oxy)pyridin-2-yl)amino)-N-methylpicolinamide]
< 100 nM | < 100 nM | NC(=O)c1cccc(Nc2cc(Oc3sc(C4CC4)nc3-c3ccccc3)ccn2)n1 [A-124, 6-((4-((2-Cyclopropyl-4-phenylthiazol-5-yl)oxy)pyridin-2-yl)amino)picolinamide]
< 100 nM | < 100 nM | CN(C)c1nc(-c2ccccc2)c(Oc2ccnc(Nc3ccc(C(=O)O)cn3)c2)s1 [A-165, 6-((4-((2-(Dimethylamino)-4-phenylthiazol-5-yl)oxy)pyridin-2-yl)amino)nicotinic acid]
< 100 nM | < 100 nM | CN(C)c1nc(-c2ccccc2)c(Oc2ccnc(Nc3cccc(C(N)=O)n3)c2)s1 [A-160, 6-((4-((2-(Dimethylamino)-4-phenylthiazol-5-yl)oxy)pyridin-2-yl)amino)picolinamide]
< 100 nM | < 100 nM | Cc1nc(-c2ccccc2)c(Oc2ccnc(Nc3cccc(C(C)(C)C(=O)O)c3)c2)s1 [A-66, 2-Methyl-2-(3-((4-((2-methyl-4-phenylthiazol-5-yl)oxy)pyridin-2-yl)amino)phenyl)propanoic acid]
< 100 nM | < 100 nM | CCc1nc(-c2ccccc2)c(Oc2ccnc(Nc3ccc(C(=O)O)cn3)c2)s1 [A-192, 6-((4-((2-Ethyl-4-phenylthiazol-5-yl)oxy)pyridin-2-yl)amino)nicotinic acid]
< 100 nM | > 100 nM | CN(C)c1nc(-c2ccccc2)c(Oc2ccnc(Nc3ccc(S(N)(=O)=O)cc3)c2)s1 [A-156, 4-((4-((2-(Dimethylamino)-4-phenylthiazol-5-yl)oxy)pyridin-2-yl)amino)benzenesulfonamide]
< 100 nM | < 100 nM | NC(=O)c1ccc(Nc2cc(Oc3sc(C4CC4)nc3-c3ccccc3)ccn2)cc1 [A-119, 4-((4-((2-Cyclopropyl-4-phenylthiazol-5-yl)oxy)pyridin-2-yl)amino)benzamide]
< 100 nM | > 100 nM | CCc1nc(-c2ccccc2)c(Oc2ccnc(Nc3ccc(S(N)(=O)=O)cc3)c2)s1 [A-184, 4-((4-((2-Ethyl-4-phenylthiazol-5-yl)oxy)pyridin-2-yl)amino)benzenesulfonamide]
> 100 nM | > 100 nM | CC(C)c1nc(-c2ccccc2)c(Oc2ccnc(Nc3cccc(C(=O)O)n3)c2)s1 [A-217, 6-((4-((2-Isopropyl-4-phenylthiazol-5-yl)oxy)pyridin-2-yl)amino)picolinic acid]
< 100 nM | > 100 nM | COc1nc(-c2ccccc2)c(Oc2ccnc(Nc3cccc(C(N)=O)c3)c2)s1 [A-143, 3-((4-((2-Methoxy-4-phenylthiazol-5-yl)oxy)pyridin-2-yl)amino)benzamide]
< 100 nM | < 100 nM | CCc1nc(-c2cccc(C)n2)c(Oc2ccnc(Nc3cccc(S(N)(=O)=O)c3)c2)s1 [A-250, 3-((4-((2-Ethyl-4-(6-methylpyridin-2-yl)thiazol-5-yl)oxy)pyridin-2-yl)amino)benzenesulfonamide]
< 100 nM | > 100 nM | CC(C)c1nc(-c2ccccc2)c(Oc2ccnc(Nc3cccc(C(N)=O)c3)c2)s1 [A-220, 3-((4-((2-Isopropyl-4-phenylthiazol-5-yl)oxy)pyridin-2-yl)amino)benzamide]
< 100 nM | > 100 nM | CC(C)(O)c1cccc(Nc2cc(Oc3sc(C4CC4)nc3-c3ccccc3)ccn2)c1 [A-115, 2-(3-((4-((2-Cyclopropyl-4-phenylthiazol-5-yl)oxy)pyridin-2-yl)amino)phenyl)propan-2-ol]
> 100 nM | > 100 nM | O=C(O)c1ccc(Nc2cc(Oc3sc(C4CCCCC4)nc3-c3ccccc3)ccn2)cc1 [A-179, 4-((4-((2-Cyclohexyl-4-phenylthiazol-5-yl)oxy)pyridin-2-yl)amino)benzoic acid]
< 100 nM | < 100 nM | NC(=O)c1cccc(Nc2cc(Oc3sc(N)nc3-c3ccccc3)ccn2)c1 [A-2, 3-((4-((2-Amino-4-phenylthiazol-5-yl)oxy)pyridin-2-yl)amino)benzamide]
< 100 nM | > 100 nM | CC(C)(O)c1cccc(Nc2cc(Oc3sc(NC4CC4)nc3-c3ccccc3)ccn2)c1 [A-44, 2-(3-((4-((2-(Cyclopropylamino)-4-phenylthiazol-5-yl)oxy)pyridin-2-yl)amino)phenyl)propan-2-ol]
< 100 nM | < 100 nM | CCc1nc(-c2cccc(C)n2)c(Oc2ccnc(Nc3cccc(C(=O)NC)c3)c2)s1 [A-259, 3-((4-((2-Ethyl-4-(6-methylpyridin-2-yl)thiazol-5-yl)oxy)pyridin-2-yl)amino)-N-methylbenzamide]
< 100 nM | < 100 nM | Cc1cccc(-c2nc(N(C)C)sc2Oc2ccnc(Nc3cccc(S(N)(=O)=O)c3)c2)n1 [A-283, 3-((4-((2-(Dimethylamino)-4-(6-methylpyridin-2-yl)thiazol-5-yl)oxy)pyridin-2-yl)amino)benzenesulfonamide]
> 100 nM | – | NC(=O)c1ccc(Nc2cc(Oc3sc(C4CCCC4)nc3-c3ccccc3)ccn2)nc1 [A-173, 6-((4-((2-Cyclopentyl-4-phenylthiazol-5-yl)oxy)pyridin-2-yl)amino)nicotinamide]
< 100 nM | – | CNc1nc(-c2ccccc2)c(Oc2ccnc(Nc3ccnc(C(C)(C)O)c3)c2)s1 [A-54, 2-(4-((4-((2-(Methylamino)-4-phenylthiazol-5-yl)oxy)pyridin-2-yl)amino)pyridin-2-yl)propan-2-ol]
< 100 nM | – | CNc1nc(-c2ccccc2)c(Oc2ccnc(Nc3ccc(S(N)(=O)=O)cc3)c2)s1 [A-53, 4-((4-((2-(Methylamino)-4-phenylthiazol-5-yl)oxy)pyridin-2-yl)amino)benzenesulfonamide]
